Legend:
[1] = target: Beta-1 adrenergic receptor (Homo sapiens) (UniProt P08588); details: Compound concentration 10.0 uM
[2] = target: Serine/threonine-protein kinase Nek6 (Homo sapiens) (UniProt Q9HC98); details: Compound concentration 1000.0 nM
[3] = target: Cyclin-dependent kinase-like 1 (Homo sapiens) (UniProt Q00532); details: Compound concentration 1000.0 nM
[4] = target: Dual specificity tyrosine-phosphorylation-regulated kinase 2 (Homo sapiens) (UniProt Q92630); details: Compound concentration 1000.0 nM
[5] = target: AP2-associated protein kinase 1 (Homo sapiens) (UniProt Q2M2I8); details: Compound concentration 1000.0 nM
[6] = target: Myosin light chain kinase 2, skeletal/cardiac muscle (Homo sapiens) (UniProt Q9H1R3); details: Compound concentration 1000.0 nM
[7] = target: Dual specificity mitogen-activated protein kinase kinase 2 (Homo sapiens) (UniProt P36507); details: Compound concentration 1000.0 nM
[8] = target: Proto-oncogene tyrosine-protein kinase receptor Ret (Homo sapiens) (UniProt P07949); details: Compound concentration 1000.0 nM
[9] = target: Ephrin type-A receptor 3 (Homo sapiens) (UniProt P29320); details: Compound concentration 1000.0 nM
Ephrin type-A receptor 3 (Homo sapiens), sequence (P29320 whole entry): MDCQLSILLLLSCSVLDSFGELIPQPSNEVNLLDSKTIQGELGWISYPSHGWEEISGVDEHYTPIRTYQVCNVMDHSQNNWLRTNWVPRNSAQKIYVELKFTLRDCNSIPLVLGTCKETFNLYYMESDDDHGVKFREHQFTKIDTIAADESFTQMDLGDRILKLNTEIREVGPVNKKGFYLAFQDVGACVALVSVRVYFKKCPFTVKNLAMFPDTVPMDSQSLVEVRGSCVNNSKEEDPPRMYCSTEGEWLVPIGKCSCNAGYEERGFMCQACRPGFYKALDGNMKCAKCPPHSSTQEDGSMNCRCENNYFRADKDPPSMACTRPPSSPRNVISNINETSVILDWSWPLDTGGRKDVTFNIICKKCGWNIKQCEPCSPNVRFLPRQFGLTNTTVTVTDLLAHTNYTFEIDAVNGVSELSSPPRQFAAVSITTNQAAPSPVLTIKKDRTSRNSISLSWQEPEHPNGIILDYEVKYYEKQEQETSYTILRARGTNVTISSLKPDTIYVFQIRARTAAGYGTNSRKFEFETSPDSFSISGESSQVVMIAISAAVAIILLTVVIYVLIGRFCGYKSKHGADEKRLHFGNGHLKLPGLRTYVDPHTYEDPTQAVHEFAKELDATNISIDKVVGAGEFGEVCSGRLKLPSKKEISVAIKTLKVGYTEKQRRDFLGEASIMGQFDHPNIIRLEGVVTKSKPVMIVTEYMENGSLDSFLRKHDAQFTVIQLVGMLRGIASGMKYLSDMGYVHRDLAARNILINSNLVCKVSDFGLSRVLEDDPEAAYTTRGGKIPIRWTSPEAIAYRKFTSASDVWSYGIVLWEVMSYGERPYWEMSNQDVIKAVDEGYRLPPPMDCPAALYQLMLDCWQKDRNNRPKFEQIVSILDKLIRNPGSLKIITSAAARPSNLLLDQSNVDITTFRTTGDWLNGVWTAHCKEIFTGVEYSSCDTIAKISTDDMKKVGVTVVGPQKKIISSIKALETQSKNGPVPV

[10] = tested on: Proto-oncogene tyrosine-protein kinase receptor Ret (Homo sapiens), P07949 [V804L]; details: Compound concentration 1000.0 nM
[11] = tested on: Mast/stem cell growth factor receptor Kit (Homo sapiens), P10721 [L576P]; details: Compound concentration 1000.0 nM
Mast/stem cell growth factor receptor Kit (Homo sapiens), P10721 [L576P], sequence (P10721 whole entry L576P): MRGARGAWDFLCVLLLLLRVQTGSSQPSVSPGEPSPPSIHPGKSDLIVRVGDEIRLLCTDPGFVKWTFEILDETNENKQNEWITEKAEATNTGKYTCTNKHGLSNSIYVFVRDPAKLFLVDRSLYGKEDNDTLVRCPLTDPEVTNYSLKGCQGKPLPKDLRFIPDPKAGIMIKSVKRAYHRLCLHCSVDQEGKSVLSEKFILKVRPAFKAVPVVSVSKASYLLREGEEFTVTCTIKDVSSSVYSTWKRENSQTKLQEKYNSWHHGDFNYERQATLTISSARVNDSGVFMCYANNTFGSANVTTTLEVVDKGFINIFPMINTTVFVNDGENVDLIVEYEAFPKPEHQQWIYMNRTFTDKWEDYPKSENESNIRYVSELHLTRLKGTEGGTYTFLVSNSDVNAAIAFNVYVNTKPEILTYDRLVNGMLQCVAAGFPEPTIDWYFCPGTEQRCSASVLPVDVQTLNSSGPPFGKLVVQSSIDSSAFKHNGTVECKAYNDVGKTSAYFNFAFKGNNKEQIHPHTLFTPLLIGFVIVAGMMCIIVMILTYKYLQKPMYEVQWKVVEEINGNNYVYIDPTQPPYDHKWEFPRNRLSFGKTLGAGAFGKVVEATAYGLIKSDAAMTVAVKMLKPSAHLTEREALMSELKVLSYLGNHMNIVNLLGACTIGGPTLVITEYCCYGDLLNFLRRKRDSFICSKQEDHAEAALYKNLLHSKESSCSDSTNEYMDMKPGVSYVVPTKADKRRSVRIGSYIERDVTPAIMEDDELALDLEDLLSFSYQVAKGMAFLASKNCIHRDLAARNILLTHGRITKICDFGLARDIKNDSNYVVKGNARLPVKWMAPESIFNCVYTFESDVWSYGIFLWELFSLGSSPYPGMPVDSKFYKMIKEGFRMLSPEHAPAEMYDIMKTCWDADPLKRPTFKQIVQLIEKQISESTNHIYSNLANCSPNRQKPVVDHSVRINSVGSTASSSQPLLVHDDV

[12] = tested on: Epidermal growth factor receptor (Homo sapiens), P00533 [L858R]; details: Compound concentration 1000.0 nM
[13] = target: Phosphorylase b kinase regulatory subunit alpha, liver isoform (Homo sapiens) (UniProt P46019); details: Compound concentration 1000.0 nM
[14] = target: Protein-tyrosine kinase 2-beta (Homo sapiens) (UniProt Q14289); details: Compound concentration 1000.0 nM
Protein-tyrosine kinase 2-beta (Homo sapiens), sequence (Q14289 whole entry, looked up): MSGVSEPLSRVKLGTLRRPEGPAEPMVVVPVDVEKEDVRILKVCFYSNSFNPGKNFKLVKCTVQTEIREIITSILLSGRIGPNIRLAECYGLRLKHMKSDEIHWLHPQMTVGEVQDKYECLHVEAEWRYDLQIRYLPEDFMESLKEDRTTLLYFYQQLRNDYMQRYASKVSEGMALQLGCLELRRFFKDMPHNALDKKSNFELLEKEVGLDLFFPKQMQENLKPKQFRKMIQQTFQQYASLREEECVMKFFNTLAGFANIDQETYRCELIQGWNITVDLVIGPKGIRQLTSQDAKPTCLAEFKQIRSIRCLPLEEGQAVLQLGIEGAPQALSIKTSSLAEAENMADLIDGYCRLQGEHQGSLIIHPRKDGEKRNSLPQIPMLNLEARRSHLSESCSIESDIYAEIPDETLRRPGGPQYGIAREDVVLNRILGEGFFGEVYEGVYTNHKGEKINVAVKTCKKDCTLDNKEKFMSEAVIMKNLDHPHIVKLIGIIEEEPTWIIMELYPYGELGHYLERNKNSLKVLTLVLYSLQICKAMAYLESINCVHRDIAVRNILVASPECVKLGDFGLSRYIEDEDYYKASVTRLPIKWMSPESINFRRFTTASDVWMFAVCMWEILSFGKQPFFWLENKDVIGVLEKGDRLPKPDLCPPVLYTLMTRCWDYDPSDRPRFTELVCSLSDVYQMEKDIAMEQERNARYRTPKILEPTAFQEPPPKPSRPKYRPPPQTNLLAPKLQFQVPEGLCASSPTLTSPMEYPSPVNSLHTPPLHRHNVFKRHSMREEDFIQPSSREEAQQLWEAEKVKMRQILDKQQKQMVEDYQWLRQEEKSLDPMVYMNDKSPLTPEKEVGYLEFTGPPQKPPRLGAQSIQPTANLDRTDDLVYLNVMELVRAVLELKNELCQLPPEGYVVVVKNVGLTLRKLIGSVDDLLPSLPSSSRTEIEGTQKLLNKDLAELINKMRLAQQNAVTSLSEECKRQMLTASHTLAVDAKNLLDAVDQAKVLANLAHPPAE

[15] = target: Tyrosine-protein kinase Srms (Homo sapiens) (UniProt Q9H3Y6); details: Compound concentration 1000.0 nM
[16] = target: Serine/threonine-protein kinase 4 (Homo sapiens) (UniProt Q13043); details: Compound concentration 1000.0 nM
[17] = target: Serine/threonine-protein kinase Nek9 (Homo sapiens) (UniProt Q8TD19); details: Compound concentration 1000.0 nM
[18] = target: Mitogen-activated protein kinase 14 (Homo sapiens) (UniProt Q16539); details: Compound concentration 1000.0 nM
[19] = target: SRSF protein kinase 3 (Homo sapiens) (UniProt Q9UPE1); details: Compound concentration 1000.0 nM
SRSF protein kinase 3 (Homo sapiens), sequence (Q9UPE1 whole entry): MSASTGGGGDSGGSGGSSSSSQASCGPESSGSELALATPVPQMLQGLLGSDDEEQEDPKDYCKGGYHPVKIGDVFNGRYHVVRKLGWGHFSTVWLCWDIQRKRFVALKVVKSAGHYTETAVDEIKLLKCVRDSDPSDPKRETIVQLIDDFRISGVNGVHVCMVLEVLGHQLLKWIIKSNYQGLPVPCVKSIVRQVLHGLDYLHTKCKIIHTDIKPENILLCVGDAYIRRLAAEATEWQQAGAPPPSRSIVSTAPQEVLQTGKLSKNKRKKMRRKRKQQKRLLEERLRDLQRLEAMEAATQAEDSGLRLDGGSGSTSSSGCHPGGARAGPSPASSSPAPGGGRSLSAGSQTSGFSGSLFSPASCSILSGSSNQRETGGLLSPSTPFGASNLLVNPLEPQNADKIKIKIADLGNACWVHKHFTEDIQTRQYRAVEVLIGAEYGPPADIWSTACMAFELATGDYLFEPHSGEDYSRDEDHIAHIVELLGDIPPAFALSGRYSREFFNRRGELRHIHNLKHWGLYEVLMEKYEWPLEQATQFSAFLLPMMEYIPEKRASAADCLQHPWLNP

[20] = target: Dual specificity mitogen-activated protein kinase kinase 7 (Homo sapiens) (UniProt O14733); details: Compound concentration 1000.0 nM
[21] = tested on: Tyrosine-protein kinase ABL1 (Homo sapiens), P00519 [M351T]; details: Compound concentration 1000.0 nM
[22] = target: Cyclin-dependent kinase 2 (Homo sapiens) (UniProt P24941); details: Compound concentration 1000.0 nM
[23] = tested on: Phosphatidylinositol 4,5-bisphosphate 3-kinase catalytic subunit alpha isoform (Homo sapiens), P42336 [H1047L]; details: Compound concentration 1000.0 nM
[24] = target: Beta-adrenergic receptor kinase 1 (Homo sapiens) (UniProt P25098); details: Compound concentration 1000.0 nM
[25] = target: Ephrin type-A receptor 2 (Homo sapiens) (UniProt P29317); details: Compound concentration 1000.0 nM
[26] = target: Myosin light chain kinase family member 4 (Homo sapiens) (UniProt Q86YV6); details: Compound concentration 1000.0 nM
[27] = target: Serine/threonine-protein kinase PAK 3 (Homo sapiens) (UniProt O75914); details: Compound concentration 1000.0 nM
[28] = target: Ephrin type-B receptor 6 (Homo sapiens) (UniProt O15197); details: Compound concentration 1000.0 nM
Ephrin type-B receptor 6 (Homo sapiens), sequence (O15197 whole entry): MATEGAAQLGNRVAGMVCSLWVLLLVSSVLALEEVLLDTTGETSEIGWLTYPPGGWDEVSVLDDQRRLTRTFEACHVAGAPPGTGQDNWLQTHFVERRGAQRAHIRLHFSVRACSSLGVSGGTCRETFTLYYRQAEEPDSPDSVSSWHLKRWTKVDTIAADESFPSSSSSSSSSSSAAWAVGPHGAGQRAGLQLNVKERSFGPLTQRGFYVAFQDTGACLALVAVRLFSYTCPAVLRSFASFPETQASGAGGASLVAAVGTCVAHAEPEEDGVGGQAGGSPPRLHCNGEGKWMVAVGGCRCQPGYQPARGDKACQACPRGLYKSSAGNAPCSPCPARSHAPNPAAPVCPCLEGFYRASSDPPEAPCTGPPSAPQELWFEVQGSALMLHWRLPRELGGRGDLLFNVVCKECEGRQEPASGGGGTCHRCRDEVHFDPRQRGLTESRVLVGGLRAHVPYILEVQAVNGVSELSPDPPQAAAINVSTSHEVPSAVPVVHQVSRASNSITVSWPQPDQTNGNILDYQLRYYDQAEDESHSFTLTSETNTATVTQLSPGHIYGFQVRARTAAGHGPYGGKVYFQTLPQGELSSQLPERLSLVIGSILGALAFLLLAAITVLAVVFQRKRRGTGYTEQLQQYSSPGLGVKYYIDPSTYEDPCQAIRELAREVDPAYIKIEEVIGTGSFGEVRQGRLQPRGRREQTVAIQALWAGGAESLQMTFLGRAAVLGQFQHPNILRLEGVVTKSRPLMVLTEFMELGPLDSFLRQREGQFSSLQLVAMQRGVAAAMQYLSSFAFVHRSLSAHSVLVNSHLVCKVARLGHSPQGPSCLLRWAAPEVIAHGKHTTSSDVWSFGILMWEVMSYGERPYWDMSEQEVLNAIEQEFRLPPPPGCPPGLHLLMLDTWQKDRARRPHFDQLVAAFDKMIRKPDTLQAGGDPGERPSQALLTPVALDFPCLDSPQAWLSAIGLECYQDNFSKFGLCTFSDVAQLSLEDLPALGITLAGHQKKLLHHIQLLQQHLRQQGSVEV

[29] = target: Serine/threonine-protein kinase PAK 4 (Homo sapiens) (UniProt O96013); details: Compound concentration 1000.0 nM
[30] = target: Kappa-type opioid receptor (Homo sapiens) (UniProt P41145); details: Compound concentration 10.0 uM
[31] = target: Calcium/calmodulin-dependent protein kinase type II subunit gamma (Homo sapiens) (UniProt Q13555); details: Compound concentration 1000.0 nM
[32] = target: Epidermal growth factor receptor (Homo sapiens) (UniProt P00533); details: Compound concentration 1000.0 nM
[33] = target: G protein-coupled receptor kinase 4 (Homo sapiens) (UniProt P32298); details: Compound concentration 1000.0 nM
[34] = tested on: Phosphatidylinositol 4,5-bisphosphate 3-kinase catalytic subunit alpha isoform (Homo sapiens), P42336 [M1043I]; details: Compound concentration 1000.0 nM
[35] = target: Serine/threonine-protein kinase pim-1 (Homo sapiens) (UniProt P11309); details: Compound concentration 1000.0 nM
Serine/threonine-protein kinase pim-1 (Homo sapiens), sequence (P11309 whole entry, looked up): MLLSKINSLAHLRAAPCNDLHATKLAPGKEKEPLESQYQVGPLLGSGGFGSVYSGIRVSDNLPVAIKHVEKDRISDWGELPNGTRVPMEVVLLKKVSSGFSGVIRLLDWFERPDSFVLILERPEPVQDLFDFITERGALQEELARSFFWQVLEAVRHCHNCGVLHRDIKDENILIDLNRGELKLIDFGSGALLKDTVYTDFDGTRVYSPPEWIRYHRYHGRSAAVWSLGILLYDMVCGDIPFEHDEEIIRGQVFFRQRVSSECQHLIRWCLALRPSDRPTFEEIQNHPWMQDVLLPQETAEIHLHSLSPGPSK

[36] = tested on: Epidermal growth factor receptor (Homo sapiens), P00533 [G719S]; details: Compound concentration 1000.0 nM
[37] = target: Serine/threonine-protein kinase N1 (Homo sapiens) (UniProt Q16512); details: Compound concentration 1000.0 nM
[38] = target: Serine/threonine-protein kinase TAO2 (Homo sapiens) (UniProt Q9UL54); details: Compound concentration 1000.0 nM
[39] = target: Serine/threonine-protein kinase TBK1 (Homo sapiens) (UniProt Q9UHD2); details: Compound concentration 1000.0 nM
[40] = target: Fibroblast growth factor receptor 3 (Homo sapiens) (UniProt P22607); details: Compound concentration 1000.0 nM
[41] = target: Mast/stem cell growth factor receptor Kit (Homo sapiens) (UniProt P10721); details: Compound concentration 1000.0 nM
Mast/stem cell growth factor receptor Kit (Homo sapiens), sequence (P10721 whole entry): as the sequence (P10721 whole entry L576P) above, with P576L counted along it

[42] = tested on: Tyrosine-protein kinase ABL1 (Homo sapiens), P00519 [H396P]; details: Compound concentration 1000.0 nM
[43] = target: Dual specificity mitogen-activated protein kinase kinase 4 (Homo sapiens) (UniProt P45985); details: Compound concentration 1000.0 nM
[44] = target: Alpha-1B adrenergic receptor (Homo sapiens) (UniProt P35368); details: Compound concentration 10.0 uM
[45] = tested on: Phosphatidylinositol 4,5-bisphosphate 3-kinase catalytic subunit alpha isoform (Homo sapiens), P42336 [E545K]; details: Compound concentration 1000.0 nM

NS(=O)(=O)c1cc(NC(=O)C2(c3ccccc3Cl)CC2)ccc1Oc1cccc(Cl)c1 [BAY-207]
inactive: inhibition [1] -3.09% | residual activity [2] 81% | residual activity [3] 99% | residual activity [4] 81% | residual activity [5] 100% | residual activity [6] 73% | residual activity [7] 89% | residual activity [8] 84% | residual activity [9] 100% | residual activity [10] 70% | residual activity [11] 89% | residual activity [12] 79% | residual activity [13] 100% | residual activity [14] 91% | residual activity [15] 77% | residual activity [16] 73% | residual activity [17] 94% | residual activity [18] 100% | residual activity [19] 80% | residual activity [20] 100% | residual activity [21] 70% | residual activity [22] 82% | residual activity [23] 98% | residual activity [24] 100% | residual activity [25] 80% | residual activity [26] 94% | residual activity [27] 64% | residual activity [28] 81% | residual activity [29] 74% | inhibition [30] 21.2% | residual activity [31] 93% | residual activity [32] 75% | residual activity [33] 100% | residual activity [34] 98% | residual activity [35] 94% | residual activity [36] 98% | residual activity [37] 100% | residual activity [38] 82% | residual activity [39] 62% | residual activity [40] 100% | residual activity [41] 79% | residual activity [42] 93% | residual activity [43] 100% | inhibition [44] -8.97% | residual activity [45] 96%

NS(=O)(=O)c1cc(NC(=O)Cc2ccccc2)ccc1Oc1cccc(Cl)c1 [BAY-1797]
inactive: inhibition [1] 14.3% | residual activity [2] 98% | residual activity [3] 98% | residual activity [4] 100% | residual activity [5] 88% | residual activity [6] 81% | residual activity [7] 100% | residual activity [8] 100% | residual activity [9] 78% | residual activity [10] 80% | residual activity [11] 78% | residual activity [12] 85% | residual activity [13] 100% | residual activity [14] 79% | residual activity [15] 78% | residual activity [16] 86% | residual activity [17] 83% | residual activity [18] 100% | residual activity [19] 100% | residual activity [20] 91% | residual activity [21] 78% | residual activity [22] 100% | residual activity [23] 96% | residual activity [24] 97% | residual activity [25] 91% | residual activity [26] 93% | residual activity [27] 85% | residual activity [28] 92% | residual activity [29] 87% | inhibition [30] 20.3% | residual activity [31] 86% | residual activity [32] 84% | residual activity [33] 100% | residual activity [34] 93% | residual activity [35] 89% | residual activity [36] 74% | residual activity [37] 100% | residual activity [38] 76% | residual activity [39] 68% | residual activity [40] 86% | residual activity [41] 87% | residual activity [42] 73% | residual activity [43] 82% | inhibition [44] -0.38% | residual activity [45] 77%
